# From ChEMBL document CHEMBL1146673, “Inhibition of ICAM-1/LFA-1-mediated heterotypic T-cell adhesion to epithelial cells: design of ICAM-1 cyclic peptides” (2004)
# Test system: T-cell
# Assay: Ability of compound to inhibit the T-cell adhesion at 200 uM in cell adhesion assay
# Format: functional, Homo sapiens
row,Substance,T-cell binding [%]
1,H-AILPRG-OH,53
2,H-ILPRGG-OH,46
3,H-KVILPR-OH,49
4,H-LPRGGS-OH,37
5,H-PRGGSV-OH,25
6,H-PSKVIL-OH,44
7,H-VALPRG-OH,71
8,H-VIAPRG-OH,46
9,H-VILARG-OH,62
10,H-VILPRA-OH,68
11,H-VILPRG-OH,32
